{"source": "patent US9718781B2", "about": "“Methods and compounds for treating proliferative disorders and viral infections” (University College Dublin, National University of Ireland, …, priority 2012, dated 2017)", "key": {"[1]": {"system": "MDA-MB-231-D3H2LN-Luc cells", "assay": "Spontaneous/orthotopic breast cancer model, mammary fat pad injection", "format": "in vivo", "conditions": "for First Appearance of Mets, Mean ± S.E.M.: lymph node metastases; for Day of Sacrifice Mean ± S.E.M.: primary tumor reaching 15 mm", "excerpt": "In order to further assess the efficacy of TP20 for use as an anti-cancer, affecting primary tumor growth, and/or as an anti-metastatic agent, a spontaneous/orthotopic cancer model was employed by injection of the triple negative MDA-MB-231 breast cancer cell line (ER, PR, Her2 negative) into the mammary fat pad of immune compromised Balb-C nude mice. More specifically, in order to increase the growth rate of the primary tumor and increase the incidence of metastasis, a more aggressive variant of the MDA-MB-231 cell line, namely MDA-MB-231-D3H2LN-Luc (Jenkins et al., (2005), Breast Cancer Res, 7, 444-454), was used in the studies described below. Furthermore, the latter MDA-MB-231-D3H2LN-Luc cell line stably over-expresses the firefly luciferase gene (Luc) thereby enabling monitoring and in vivo detection of both the primary tumor and of the secondary metastasis by bioluminescent imaging in addition to assessment of the growth of the primary tumor by standard caliper measurements. In total, three groups of animals were studied and the diagram below gives an overview of the study design. FIG. 7 provides a diagram of a study design.\nBody weights of the BALB/c nude mice were recorded prior to initiating the study and, thereafter, 3 times per week (Monday, Wednesday & Friday) following the mammary fat pad injection up to the point of sacrifice or death of the animal, as per welfare guidelines. Animals were typically sacrificed once the primary tumor reached 15 mm or, as required, if animals needed to be culled for welfare reasons.\nBALB/C-nude mice (female, 5-7 weeks old) were pre-treated 24 and 4 hr with TP20 at 0.36 mg/kg (blue line; Group 1), 1 mg/kg (red line; Group 2) or as control, vehicle (1% DMSO in PBS; black line; Group 3) prior to injecting MDA-MB-231-D3H2LN-Luc cells (50 μl, 2×106 suspended in 50% DPBS/50% Matrigel) into the mammary fat pad with a 27.5 G needle. Thereafter, mice were treated with TP20 or vehicle thrice weekly (Monday, Wednesday & Friday) until the primary tumor width reached 15 mm. Body weight was monitored 3 times per week. The data presented represents the mean (FIG. 8A; ±S.E.M.) or Percentage in Body Weight (FIG. 8B; ±S.E.M.), where weight at day −1 is 100%.\nThrough the duration of the study to monitor the growth of the primary (1°) tumor, for welfare and experimental reasons, caliper measurements were performed thrice weekly (i.e., Monday, Wednesday & Friday) and involved measuring the width and length of the primary tumor mass. These measurements were then used in the following formula to calculate the tumor volume (mm3): Volume of Tumor (mm3)=length×width2×0.5\nBALB/C-nude mice (female, 5-7 weeks old) were pre-treated 24 and 4 hr with TP20 at 0.36 mg/kg (blue line; Group 1), 1 mg/kg (red line; Group 2) or as control, vehicle (1% DMSO; black line; Group 3) prior to injecting MDA-MB-231-D3H2LN-Luc cells (50 μl, 2×106 suspended in 50% DPBS/50% Matrigel) into the mammary fat pad with a 27.5 G needle. Thereafter, mice were treated with TP20 or vehicle thrice weekly (Monday, Wednesday & Friday) until the primary tumor diameter reached 15 mm. Primary tumor growth was monitored thrice weekly using caliper measurements where tumor volume (mm3) is calculated by the formula Volume=Length×width2×0.5. The data presented represents the mean (±S.E.M.) tumor volume (mm3) for each of the treatment groups as a function of time (days). Fine black lines represent the linear trend for each of the treatment groups.\nAs the 1° tumors reached 15 mm in diameter, for welfare reasons the animals were sacrificed. The day of sacrifice was analyzed using Kaplan-Meier survival analysis and subsequent Log-Rank and Wilcoxon tests to compare any differences between the treatments groups in terms of time of death. […]"}, "[2]": {"assay": "Phase 1 safety/tolerability study, repeat oral dosing", "conditions": "360 μg/kg oral gavage twice daily", "quoted_text": "Data is presented as mean body weight (±S.E.M.; FIG. 12A) or as mean percentage change in body weight (±S.E.M.; FIG. 12B) as a function of time."}, "[3]": {"system": "A/Puerto Rico/8/1934 (H1N1) influenza A virus", "format": "in vivo, BALB/c mice"}, "[4]": {"system": "human platelets", "assay": "Thrombin-induced platelet aggregation of human platelets ex vivo", "format": "cell-based", "excerpt": "(§1) The method of assessing platelet aggregation also allows evaluation of the effect of the compounds of the invention on platelet aggregation upon stimulation by other agonists, e.g., adenosine diphosphate (ADP) and thrombin."}, "[5]": {"system": "human platelets", "assay": "ADP-induced platelet aggregation of human platelets ex vivo", "format": "cell-based", "excerpt": "as §1"}, "[6]": {"conditions": "lung, Day 4, Tamiflu 10 mg/kg, TP20 0.36 mg/kg"}, "[7]": {"conditions": "lung, Day 4, number of animals of 3"}}, "note": "Several values for one entry are separate records, joined by “and”; a condition that tells them apart may be missing. Equal values may be shown once."}
{"smiles": "COc1ccc(-c2cccc(Oc3ccc([N+](=O)[O-])cc3S(=O)(=O)NC(=O)NC(C)(C)C)c2)cc1", "note": "[TP20, N-(tert-butylcarbamoyl)-2-((4′-methoxy-[1,1′-biphenyl]-3-yl)oxy)-5-nitrobenzene-sulfonamide]", "values": [{"measurement": "effect on primary tumor growth", "setting": "[1]; 0.36 mg/kg and 1 mg/kg vs. vehicle", "result": "significantly decreases the primary tumor growth"}, {"measurement": "tolerability of repeat administration (body weight)", "setting": "[1]; 0.36 mg/kg and 1 mg/kg, thrice weekly", "result": "well-tolerated"}, {"measurement": "First Appearance of Mets, Mean ± S.E.M.", "setting": "[1]; Group 1, 0.36 mg/kg", "result": "22.5 ± 2.16 (N = 8) days"}, {"measurement": "Day of Sacrifice Mean ± S.E.M.", "setting": "[1]; Group 1, 0.36 mg/kg", "result": "38.5 ± 2.83 (N = 8) days"}, {"measurement": "First Appearance of Mets, Mean ± S.E.M.", "setting": "[1]; Group 2, 1 mg/kg", "result": "26.2 ± 3.71 (N = 9) days"}, {"measurement": "Day of Sacrifice Mean ± S.E.M.", "setting": "[1]; Group 2, 1 mg/kg", "result": "38.4 ± 3.86 (N = 7) days"}, {"measurement": "tolerability", "setting": "[2]", "result": "well tolerated with no safety issues/concerns"}, {"measurement": "survival on repeat dosing", "setting": "[2]; 14 days monitoring", "result": "All mice survived"}, {"measurement": "weight loss", "setting": "[2]; at Day 7", "result": "~4", "unit": "%"}, {"measurement": "mean time of death post-viral challenge", "setting": "[3]; TP20 360 μg/kg oral gavage twice daily", "result": 7.2, "unit": "days"}, {"measurement": "loss of body weight post-viral infection", "setting": "[3]; Tamiflu 10 mg/kg, TP20 360 μg/kg, oral gavage twice daily", "result": "≤ 30", "unit": "%"}, {"measurement": "Alveolar Acute Inflammation, number of animals with the finding", "setting": "[3]; lung, Day 4, 3 animals", "result": "(0)"}, {"measurement": "Bronchiolar Erosion, number of animals with the finding", "setting": "[3]; lung, Day 4, 3 animals", "result": "(3)"}, {"measurement": "Bronchiolar Exudate, number of animals with the finding", "setting": "[3]; lung, Day 4, 3 animals", "result": "(3)"}, {"measurement": "Bronchiolar acute Inflammation, number of animals with the finding", "setting": "[3]; lung, Day 4, 3 animals", "result": "(3)"}, {"measurement": "Vascular Necrosis, number of animals with the finding", "setting": "[3]; lung, Day 4, 3 animals", "result": "(0)"}, {"measurement": "Extent of Perivascular Edema (Mean ± S.E.M.), Per Animal", "setting": "[3]; [6]", "result": "16.9 ± 1.09 (70) arbitrary units and 17.4 ± 0.98 (89) arbitrary units and 19.2 ± 1.10 (78) arbitrary units"}, {"measurement": "Extent of Perivascular Edema (Mean ± S.E.M.), Per Treatment Group", "setting": "[3]; [6]", "result": "18.0 ± 0.59", "unit": "arbitrary units"}, {"measurement": "reduction in the perivascular edema compared to vehicle", "setting": "[3]; [6]", "result": "approx. 20%"}, {"measurement": "Bronchiolar Erosion, Mild", "setting": "[3]; [7]", "result": 3}, {"measurement": "Bronchiolar Erosion, Minimal", "setting": "[3]; [7]", "result": 0}, {"measurement": "Bronchiolar Erosion, Moderate", "setting": "[3]; [7]", "result": 0}, {"measurement": "Bronchiolar Exudate, Mild", "setting": "[3]; [7]", "result": 1}, {"measurement": "Bronchiolar Exudate, Minimal", "setting": "[3]; [7]", "result": 2}, {"measurement": "Bronchiolar Exudate, Moderate", "setting": "[3]; [7]", "result": 0}, {"measurement": "Bronchiolar acute Inflammation, Mild", "setting": "[3]; [7]", "result": 0}, {"measurement": "Bronchiolar acute Inflammation, Minimal", "setting": "[3]; [7]", "result": 3}, {"measurement": "Perivascular Edema, Mild", "setting": "[3]; [7]", "result": 0}, {"measurement": "Perivascular Edema, Minimal", "setting": "[3]; [7]", "result": 3}, {"measurement": "Perivascular Edema, number of animals with the finding", "setting": "[3]; mouse, in vivo", "result": "(3)"}, {"measurement": "effect on thrombin-induced platelet aggregation", "setting": "[4]", "result": "did not affect"}, {"measurement": "effect on ADP-induced platelet aggregation", "setting": "[5]", "result": "did not affect"}]}
